These results are taken from ChEMBL document CHEMBL4831512 (J Med Chem, 2021).

Broadly, the Cmax is the peak of the concentration-time curve. The term clearance denotes a measure of how efficiently the substance is removed, as volume per time. Broadly, the AUC(0-t) is exposure summed from dosing to a finite time, without extrapolation to infinity. A higher AUC(0-t) goes with high exposure. One may read the thermodynamic solubility as the concentration in solution at equilibrium with solid. For orientation: half-life means the time needed for the level to fall by half in the phase considered. Higher therefore signals slow decline. The IC50 is the concentration that gives 50% inhibition.

A short description of data set [1]: in vivo. The following applies: Sprague-Dawley, rat, po, 10 mg/kg.
Data set [2] can be described thus: in vivo. To be noted: Sprague-Dawley, rat, iv, 1 mg/kg.
A short description of data set [3]: in vivo. To be noted: Sprague-Dawley, rat, po, 10 mg/kg. This is another data set of the same source.
Data set [4] can be described thus: in vivo. To be noted: Sprague-Dawley, rat, po, 10 mg/kg. The source holds these as a separate data set.
The next data set can be described thus: in vitro. The following applies: PAMPA.
The nature of data set [5]: physchem. To be noted: buffer, pH 6.8.
Description: Equilibrium solubility of compound in buffer at pH 6.8 incubated over night under shaking condition by LC-MS/MS analysis
The nature of data set [6]: physchem. The following applies: simulated gi fluid, pH 1.
Description: Solubility of compound in stimulated gastric fluid at pH 1 using crystalline form of sample by shake flask method
A short description of data set [7]: physchem. To be noted: buffer, pH 6.8. This is another data set of the same source.
Description: Solubility of compound at pH 6.8 by shake flask method
Data set [8] can be described thus: physchem. To be noted: simulated gi fluid.
Description: Solubility of compound in fed state simulated intestinal fluid by shake flask method
The nature of data set [9]: in vivo. The following applies: Sprague-Dawley, rat, iv, 1 mg/kg. This is another data set of the same source.
The test system of the next data set is Blood. Description: tissue or blood. In kind it is functional, tissue-based. The following applies: Homo sapiens.
For data set [10], the target named is T1, Phosphatidylinositol 4,5-bisphosphate 3-kinase catalytic subunit alpha isoform (Homo sapiens, UniProt P42336). Type of data set: cell-based, Fibroblast.
Description: Inhibition of human PI3Kalpha expressed in rat fibroblast cells assessed as reduction in AKT phosphorylation at Ser473 residue incubated for 1 hr by AlphaScreen assay
Data set [11] concerns the target T2, Phosphatidylinositol 4,5-bisphosphate 3-kinase catalytic subunit beta isoform (Homo sapiens, UniProt P42338).
In data set [12] the target is T3, Phosphatidylinositol 4,5-bisphosphate 3-kinase catalytic subunit delta isoform (Homo sapiens, UniProt O00329).
T3 sequence (O00329 whole entry): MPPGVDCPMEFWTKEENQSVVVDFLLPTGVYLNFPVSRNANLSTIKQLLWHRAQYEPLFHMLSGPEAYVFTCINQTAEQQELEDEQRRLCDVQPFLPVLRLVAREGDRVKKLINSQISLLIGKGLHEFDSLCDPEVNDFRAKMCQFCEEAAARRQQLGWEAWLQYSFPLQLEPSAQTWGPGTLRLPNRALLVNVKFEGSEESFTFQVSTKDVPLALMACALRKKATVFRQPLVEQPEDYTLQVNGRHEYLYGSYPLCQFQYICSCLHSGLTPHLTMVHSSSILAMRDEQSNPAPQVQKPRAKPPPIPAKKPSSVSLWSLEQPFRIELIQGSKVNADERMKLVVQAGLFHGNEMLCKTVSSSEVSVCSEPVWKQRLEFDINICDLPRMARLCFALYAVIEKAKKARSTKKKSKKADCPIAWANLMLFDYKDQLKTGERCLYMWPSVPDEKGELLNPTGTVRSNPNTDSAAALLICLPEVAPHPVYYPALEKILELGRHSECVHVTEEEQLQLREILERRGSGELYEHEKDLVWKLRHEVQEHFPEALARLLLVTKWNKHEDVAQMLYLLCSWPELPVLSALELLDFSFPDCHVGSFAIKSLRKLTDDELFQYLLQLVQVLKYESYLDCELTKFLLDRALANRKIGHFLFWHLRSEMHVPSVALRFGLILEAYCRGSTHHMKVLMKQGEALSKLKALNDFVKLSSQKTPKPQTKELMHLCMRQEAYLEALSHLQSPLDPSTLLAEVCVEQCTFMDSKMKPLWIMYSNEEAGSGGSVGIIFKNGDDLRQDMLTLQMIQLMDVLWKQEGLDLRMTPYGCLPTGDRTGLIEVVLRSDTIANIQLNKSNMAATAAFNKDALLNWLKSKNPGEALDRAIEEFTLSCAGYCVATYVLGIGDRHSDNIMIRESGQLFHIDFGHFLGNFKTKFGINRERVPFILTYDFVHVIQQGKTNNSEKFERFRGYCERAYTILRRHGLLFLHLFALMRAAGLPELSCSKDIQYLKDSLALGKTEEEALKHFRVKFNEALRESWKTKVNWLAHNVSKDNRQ

For data set [13], the target named is T2, Phosphatidylinositol 4,5-bisphosphate 3-kinase catalytic subunit beta isoform. In kind it is cell-based, Fibroblast.
Description: Inhibition of human PI3Kbeta expressed in rat fibroblast cells assessed as reduction in AKT phosphorylation at Ser473 residue incubated for 1 hr by AlphaScreen assay
Data set [14] addresses T3, Phosphatidylinositol 4,5-bisphosphate 3-kinase catalytic subunit delta isoform. Type of data set: cell-based, Fibroblast.
Description: Inhibition of human PI3Kdelta expressed in rat fibroblast cells assessed as reduction in AKT phosphorylation at Ser473 residue incubated for 1 hr by AlphaScreen assay
Data set [15] has as its target T1, Phosphatidylinositol 4,5-bisphosphate 3-kinase catalytic subunit alpha isoform.
For data set [16], the target named is 3',5'-cyclic-AMP phosphodiesterase 4D (Homo sapiens, UniProt Q08499).
Description: Binding affinity to PDE4d (unknown origin)
The species named for data set [17] is Rattus norvegicus. To be noted: dose 10-20 mg/kg, time 2.0 hrs.
The species entered for data set [18] is Rattus norvegicus. The following applies: dose 20.0 mg/kg, time 2.0 hrs.
The nature of data set [19]: in vivo. The following applies: Sprague-Dawley, rat, po, 100 mg/kg.
Data set [20] can be described thus: in vivo. To be noted: Sprague-Dawley, rat, po, 100 mg/kg. The source holds these as a separate data set.
Data set [21] in a line: in vivo. To be noted: Sprague-Dawley, rat, po, 100 mg/kg. This is another data set of the same source.
Data set [22] can be described thus: in vivo. To be noted: Sprague-Dawley, rat, po, 300 mg/kg.
Data set [23] is described as follows: in vivo. The following applies: Sprague-Dawley, rat, po, 300 mg/kg. The source holds these as a separate data set.
Data set [24] is described as follows: in vivo. To be noted: Sprague-Dawley, rat, po, 300 mg/kg. The source holds these as a separate data set.

≈ marks a conversion by molar mass, not a printed value. Calls of active or inactive are those of the source.

T2 sequence (P42338 whole entry, canonical isoform): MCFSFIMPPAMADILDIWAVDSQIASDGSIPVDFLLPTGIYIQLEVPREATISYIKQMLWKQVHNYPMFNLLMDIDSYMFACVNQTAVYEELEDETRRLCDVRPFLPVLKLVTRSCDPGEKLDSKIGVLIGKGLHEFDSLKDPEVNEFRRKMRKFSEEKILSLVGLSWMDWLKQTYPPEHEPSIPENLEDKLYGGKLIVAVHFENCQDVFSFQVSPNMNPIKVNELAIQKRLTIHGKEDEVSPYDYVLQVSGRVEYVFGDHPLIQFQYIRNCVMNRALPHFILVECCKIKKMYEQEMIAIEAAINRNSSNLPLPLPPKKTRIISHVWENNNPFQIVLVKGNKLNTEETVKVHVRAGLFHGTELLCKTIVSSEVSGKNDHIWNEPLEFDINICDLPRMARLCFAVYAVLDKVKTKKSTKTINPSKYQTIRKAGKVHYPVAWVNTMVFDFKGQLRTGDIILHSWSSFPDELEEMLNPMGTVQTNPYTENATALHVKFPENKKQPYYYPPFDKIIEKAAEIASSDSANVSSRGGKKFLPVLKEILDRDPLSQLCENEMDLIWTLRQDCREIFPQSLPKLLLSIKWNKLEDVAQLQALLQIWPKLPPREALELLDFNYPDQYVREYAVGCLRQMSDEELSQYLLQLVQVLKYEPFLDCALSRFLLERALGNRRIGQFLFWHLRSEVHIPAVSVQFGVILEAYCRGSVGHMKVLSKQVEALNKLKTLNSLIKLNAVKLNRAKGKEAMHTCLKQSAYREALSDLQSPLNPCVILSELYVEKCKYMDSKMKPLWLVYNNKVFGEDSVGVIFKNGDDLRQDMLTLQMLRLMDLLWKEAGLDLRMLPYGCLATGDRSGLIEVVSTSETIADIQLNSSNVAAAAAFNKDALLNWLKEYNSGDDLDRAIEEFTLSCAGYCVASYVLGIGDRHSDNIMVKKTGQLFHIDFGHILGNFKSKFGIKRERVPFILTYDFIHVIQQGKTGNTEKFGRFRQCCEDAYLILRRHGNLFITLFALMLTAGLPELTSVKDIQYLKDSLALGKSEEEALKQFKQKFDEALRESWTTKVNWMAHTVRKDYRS
T1 sequence (P42336 whole entry, canonical isoform): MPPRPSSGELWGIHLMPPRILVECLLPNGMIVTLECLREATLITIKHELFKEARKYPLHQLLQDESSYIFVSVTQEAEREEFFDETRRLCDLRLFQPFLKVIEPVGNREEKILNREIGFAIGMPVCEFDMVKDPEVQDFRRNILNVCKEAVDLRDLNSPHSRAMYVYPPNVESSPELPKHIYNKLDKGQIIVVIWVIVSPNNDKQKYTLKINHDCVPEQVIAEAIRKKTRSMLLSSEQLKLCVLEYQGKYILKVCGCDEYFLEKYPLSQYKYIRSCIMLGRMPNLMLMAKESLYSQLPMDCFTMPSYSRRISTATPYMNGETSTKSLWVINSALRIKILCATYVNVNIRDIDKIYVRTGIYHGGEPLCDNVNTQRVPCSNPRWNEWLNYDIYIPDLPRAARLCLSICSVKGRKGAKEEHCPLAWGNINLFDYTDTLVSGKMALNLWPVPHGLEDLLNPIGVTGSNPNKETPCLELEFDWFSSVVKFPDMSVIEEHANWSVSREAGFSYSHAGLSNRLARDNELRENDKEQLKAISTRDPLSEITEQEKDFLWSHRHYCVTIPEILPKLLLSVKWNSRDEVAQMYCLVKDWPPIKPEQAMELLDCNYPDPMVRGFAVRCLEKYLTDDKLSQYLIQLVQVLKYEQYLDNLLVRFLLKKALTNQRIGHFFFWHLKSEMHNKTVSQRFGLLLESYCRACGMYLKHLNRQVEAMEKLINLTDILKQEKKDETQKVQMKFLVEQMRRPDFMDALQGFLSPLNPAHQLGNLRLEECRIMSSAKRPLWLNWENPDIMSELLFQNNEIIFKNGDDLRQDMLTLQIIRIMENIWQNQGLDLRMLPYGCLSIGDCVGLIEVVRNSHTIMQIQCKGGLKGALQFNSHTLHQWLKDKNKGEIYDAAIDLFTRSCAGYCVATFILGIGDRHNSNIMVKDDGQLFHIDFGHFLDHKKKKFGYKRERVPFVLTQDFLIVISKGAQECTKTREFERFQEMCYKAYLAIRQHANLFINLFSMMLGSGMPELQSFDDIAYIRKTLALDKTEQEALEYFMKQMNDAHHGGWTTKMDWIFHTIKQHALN
Chain of 3',5'-cyclic-AMP phosphodiesterase 4D (Q08499 whole entry): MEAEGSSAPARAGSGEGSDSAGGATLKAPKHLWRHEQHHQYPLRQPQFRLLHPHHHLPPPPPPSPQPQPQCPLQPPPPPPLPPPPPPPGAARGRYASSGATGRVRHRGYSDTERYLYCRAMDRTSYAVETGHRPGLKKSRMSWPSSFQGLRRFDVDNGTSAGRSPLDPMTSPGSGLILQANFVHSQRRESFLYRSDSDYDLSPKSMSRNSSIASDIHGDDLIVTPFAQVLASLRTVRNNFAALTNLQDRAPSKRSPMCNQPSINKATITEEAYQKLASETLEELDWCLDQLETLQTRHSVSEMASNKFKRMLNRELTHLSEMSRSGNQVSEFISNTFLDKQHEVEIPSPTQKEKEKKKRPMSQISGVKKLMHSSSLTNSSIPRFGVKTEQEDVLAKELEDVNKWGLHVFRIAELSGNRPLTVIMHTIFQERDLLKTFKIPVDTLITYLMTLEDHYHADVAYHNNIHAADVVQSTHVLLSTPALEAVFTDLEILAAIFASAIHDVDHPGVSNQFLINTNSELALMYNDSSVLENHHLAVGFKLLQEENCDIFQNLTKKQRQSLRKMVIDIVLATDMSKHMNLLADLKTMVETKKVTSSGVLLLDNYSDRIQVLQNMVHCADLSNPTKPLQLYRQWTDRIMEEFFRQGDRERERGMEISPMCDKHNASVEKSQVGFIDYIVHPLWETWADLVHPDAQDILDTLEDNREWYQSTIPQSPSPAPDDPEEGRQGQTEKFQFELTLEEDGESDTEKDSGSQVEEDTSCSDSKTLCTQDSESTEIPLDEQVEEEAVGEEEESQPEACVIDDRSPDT
Description for in vitro: Permeability of the compound at 500 uM incubated for 16 hrs by PAMPA

The compound `Cc1noc(-c2cc(-c3cc(S(=O)(=O)NCC(C)(C)O)ccc3C)cnc2N)n1` yielded a Cmax in the data set “in vivo [1]” of 3.29 µM. This compound registered a clearance in “in vivo [2]” of 15 mL/min/kg. The exposure AUC(0-t) at 24 h in the data set “in vivo [3]” is 17.1 µM·h. The bioavailability in the data set “in vivo [4]” amounted to 66%. In addition, the Fa at 16 h, 500 µM in “in vitro” turned out to be 81%. The thermodynamic solubility was 160 µg/mL (≈ 383 µM) in “physchem [5]”, 1020 µg/mL (≈ 2460 µM) in “physchem [6]”, 16 µg/mL (≈ 38.3 µM) in the data set “physchem [7]” and 92 µg/mL (≈ 220 µM) in the data set “physchem [8]”.
In turn, `Cc1ncc(-c2nc(-c3cc(S(=O)(=O)NC4CCC(F)(F)CC4)ccc3C)cnc2N)s1` showed a Fa at 16 h, 500 µM in “in vitro” of 96%.
In turn, `Cc1cnn(-c2cc(-c3cc(S(=O)(=O)NCC(C)(C)O)ccc3C)cnc2N)c1` had a Fa at 16 h, 500 µM in the data set “in vitro” of 68%. In addition, the thermodynamic solubility in “physchem [5]” was 30 µg/mL (≈ 72.2 µM).
For `Cc1ccc(S(=O)(=O)NCC(C)(C)O)cc1-c1cnc(N)c(-c2cn(C)nc2C)n1`, the Fa at 16 h, 500 µM in “in vitro” is 24%.
The compound `Cc1ncc(-c2nc(-c3cc(S(=O)(=O)NCC(C)(C)O)ccc3C)cnc2N)s1` yielded a Fa at 16 h, 500 µM in the data set “in vitro” of 43%.
Consider `Cc1ccc(S(=O)(=O)N[C@H]2CC[C@H](O)CC2)cc1-c1cnc(N)c(C(=O)C2CC2)n1`, for which the half-life in the data set “in vivo [9]” was 4.6 h.
Take `Cc1ncc(-c2nc(-c3cc(S(=O)(=O)N[C@H]4CC[C@H](O)CC4)ccc3C)cnc2N)s1`: in the data set “in vitro”, the Fa at 16 h, 500 µM is below 21%.
The same measure, in the same setting: the figure for `Cc1ccc(S(=O)(=O)NCC(C)(C)O)cc1-c1cnc(N)c(-n2cncn2)c1` is below 27%; for `Cc1cc(-c2nc(-c3cc(S(=O)(=O)NCC(C)(C)O)ccc3C)cnc2N)on1` it is 43%.
Still for that read-out and setting: the same measure for `Cc1ccc(S(=O)(=O)NCC(C)(C)O)cc1-c1cnc(N)c(-c2cnn(C)c2C)c1`: below 35%.
As for `CCn1nnc(CCNC(=O)Nc2nc(C)c(-c3ccc(S(C)(=O)=O)c(F)c3)s2)n1`, the half-maximal inhibitory concentration (IC50) in the data set on Blood was 7050 nM; in [10], above 10000 nM; in [11], 360 nM; in [12], 960 nM; in data set [13], 2360 nM; in data set [14] it was 4030 nM. Further, it took 3030 nM to reach half-maximal inhibition in data set [15] (IC50).
Turning to `Cc1ncc(-c2cc(-c3cc(S(=O)(=O)NCC(C)(C)O)ccc3C)cnc2N)s1`, in the data set on Blood, the 50% inhibitory concentration (IC50) was determined as 1810 nM. This compound also displayed a Fa at 16 h, 500 µM in “in vitro” of 43%. In the data set “physchem [5]”, this compound yielded a solubility (thermodynamic) of 52 µg/mL (≈ 120 µM).
In the same order, the values of `Cc1ccc(S(=O)(=O)NCC(C)(C)O)cc1-c1cnc(N)c(-c2cnn(C)n2)c1` are 931 nM, 52% and 290 µg/mL (≈ 696 µM).
As for `Cc1ncc(-c2cc(-c3cc(S(=O)(=O)NCC(C)(C)O)ccc3C)cnc2N)o1`, the IC50 in the data set with Blood amounted to 856 nM; in data set [16] it was 1100 nM. Besides, in the data set listed under Rattus norvegicus [17], the inhibition result is “Dose-Dependent Effect”. Also, the inhibition result in the data set listed under Rattus norvegicus [18] is “Active”. Moreover, the highest concentration (Cmax) was 1.53 µM in the data set “in vivo [1]”, 12.2 µM in “in vivo [19]” and 25.2 µM in the data set “in vivo [22]”. Also, the clearance in the data set “in vivo [2]” came out at 30 mL/min/kg. For the same compound, the results for the AUC(0-t) at 24 h in “in vivo [3]”, in “in vivo [20]” and in “in vivo [23]” were 9.75 µM·h, 128 µM·h and 397 µM·h, respectively. Also, the bioavailability is 72% in the data set “in vivo [4]”, 94% in “in vivo [21]” and 122% in “in vivo [24]”. In “in vitro”, this compound showed a Fa at 16 h, 500 µM below 27%. The solubility (thermodynamic) in “physchem [5]” is 270 µg/mL (≈ 648 µM); in “physchem [6]” it was 532 µg/mL (≈ 1280 µM); in “physchem [7]”, 4 µg/mL (≈ 9.6 µM); in “physchem [8]”, 200 µg/mL (≈ 480 µM).
For the compound `Cc1ccc(S(=O)(=O)NCC(C)(C)O)cc1-c1cnc(N)c(-c2cnn(C)n2)n1`, the Fa at 16 h, 500 µM in the data set “in vitro” stood at 60%.
Same read-out and setting: the figure for `Cc1ncc(-c2nc(-c3cc(S(=O)(=O)NCCC(C)(C)O)ccc3C)cnc2N)s1` is 35%.
Same read-out and setting: the figure for `Cc1ccc(S(=O)(=O)NCC(C)(C)O)cc1-c1cnc(N)c(-n2cncn2)n1` is 27%; for `Cc1ccn(-c2nc(-c3cc(S(=O)(=O)NCC(C)(C)O)ccc3C)cnc2N)n1` it is 96%; for `Cc1ccc(S(=O)(=O)NCC(C)(C)O)cc1-c1cnc(N)c(-c2nn(C)nc2C)n1` it is 81%.
On the same count and under the same terms, the same measure for `Cc1nnc(-c2cc(-c3cc(S(=O)(=O)NCC(C)(C)O)ccc3C)cnc2N)o1`: 27%.
Compound `Cc1ncc(-c2nc(-c3cc(S(=O)(=O)NCCCO)ccc3C)cnc2N)s1` had a Fa at 16 h, 500 µM in “in vitro” of 27%.
Same read-out and setting: the figure for `Cc1ncc(-c2nc(-c3cc(S(=O)(=O)NCCO)ccc3C)cnc2N)s1` is 35%.
